Measured values reported in ChEMBL document CHEMBL5543158, “Design of Evodiamine-Glucose Conjugates with Improved In Vivo Antitumor Activity” (J Med Chem, 2024).
In brackets after ≈: the same amount, converted by molar mass.

Assays:
[1] = Solubility of the compound in double distilled water measured upto 30 mins by UV-vis spectrophotometry; assay type: physicochemical
[2] = test system: HCT-116; test: Antiproliferative activity against human HCT116 cells in presence of 5 uM phloretin measured after 72 hrs by CCK-8 assay; assay type: functional, cell-based; conditions: HCT-116, 72 h
[3] = Toxicity in mouse xenografted with human HCT-116 cells assessed as organ damage by measuring change in heart at 5 mg/kg, ip twice a day administered 21 consecutive days; assay type: organism-based; conditions: in vivo
[4] = Toxicity in mouse xenografted with human HCT-116 cells assessed as organ damage by measuring thickened alveolar wall in lungs at 5 mg/kg, ip twice a day administered 21 consecutive days; assay type: organism-based; conditions: in vivo
[5] = Cytotoxicity against HUVEC after 72 hrs by CCK-8 assay; assay type: toxicity, cell-based; conditions: human, HUVEC cells
[6] = test system: HCT-116; test: Antiproliferative activity against human HCT116 cells in presence of 10 uM phloretin measured after 72 hrs by CCK-8 assay; assay type: functional, cell-based; conditions: HCT-116, 72 h
[7] = test system: HCT-116; test: In vivo antitumor effect in human HCT-116 cells xenografted mouse model assessed as tumor growth inhibition at 5 mg/kg, ip twice a day administered 21 consecutive days; assay type: functional; conditions: read-out: TGI
[8] = Toxicity in mouse xenografted with human HCT-116 cells assessed as organ damage by measuring change in spleen at 5 mg/kg, ip twice a day administered 21 consecutive days; assay type: organism-based; conditions: in vivo
[9] = Toxicity in mouse xenografted with human HCT-116 cells assessed as liver damage by measuring enlarged sizes of vacuole at 5 mg/kg, ip twice a day administered 21 consecutive days; assay type: organism-based; conditions: in vivo
[10] = Toxicity in mouse xenografted with human HCT-116 cells assessed as kidney damage by measuring atrophy of glomeruli at 5 mg/kg, ip twice a day administered 21 consecutive days; assay type: organism-based; conditions: in vivo

In the case of `CN1c2ccc(F)cc2C(=O)N2CCc3c([nH]c4ccc(O)cc34)[C@H]21`, the solubility at 0.5 h [1] is reported as 0.145 mg/mL (≈ 430 µM), the IC50 [2] is reported as 0.054 µM and the Activity [3] is reported as “Toxic”. For the same compound, the Activity [4] was “Toxic”, the IC50 at 72 h [5] was 0.016 µM and the IC50 [6] was 0.545 µM. The inhibition in vivo at 5 mg/kg [7] was 51%, the Activity [8] was “Toxic” and the Activity [9] was “Toxic”. The Activity [10] was “Toxic”.
